What was measured:
[1] = Cyclic voltammetry, Fe(III)/Fe(II) electrode potential; assay type: physicochemical; details: for electrode potential (E1/2) vs. Ag/AgCl: 0.10 M potassium chloride
Method: Cyclic voltammetry experiments were carried out in aqueous solutions containing 0.10 M potassium chloride at acidic and neutral pH values with potassium ferricyanide salt in aqueous solution as a reference (Figure S8, Supplementary Materials). […] The electrode potential (E1/2) of Fe(L1)(OH2) at pH 3 was 227 mV vs. Ag/AgCl (515 mV vs. normal hydrogen electrode, NHE) and was −209 mV vs. Ag/AgCl (79 mV vs. NHE) at pH 7. […] At pH 3 the E1/2 was estimated as 264 mV vs. Ag/AgCl (552 mV vs. NHE), and, at pH 7, it was estimated as −618 mV vs. Ag/AgCl (−330 mV vs. NHE). For comparison, the E1/2 of Fe(L3)(OH2) at pH 3 was reported as 112 mV vs. Ag/AgCl (400 mV vs. NHE) and, at pH 7, the value was −588 mV vs. Ag/AgCl (−300 mV vs. NHE).
Cyclic voltammetry measurements were performed in 10.0-mL aqueous solutions containing 0.100 M […] as supporting electrolyte and 1.00 mM Fe(III) complexes. A standard three-electrode cell was used with a polished glassy carbon as the working electrode, a Pt wire as the auxiliary electrode, and an Ag/AgCl (1.00 mM) reference electrode. The samples were purged with extra pure N2 gas to remove the dissolved oxygen for each measurement. Current was measured with a 10-s prescan delay between −1.5 V and 1.5 V at a sweep rate of 100 and 500 mV/s, where 1.00 mM ferrocyanide was used as a standard solution. The redox potential of Fe(II)/(III) was calculated from the anodic (Epa) and cathodic (Epc) potentials, as EFe(II)/(III) = (Epa + Epc)/2 in reference to Ag/AgCl (1.00 mM), then converted to a value referenced to the normal hydrogen electrode (NHE).

Balb/c mice = experiment: Dynamic T1-weighted MRI in mice after tail vein injection (4.7 T); assay type: in vivo
Description: The two new Fe(III) complexes, Fe(L1)(OH2) and […], and the Gd(III) agent, Gd(DOTA), were studied in Balb/c mice on a small animal 4.7-T MRI scanner upon tail vein injection of the agent (Figure S24, Supplementary Materials). […] Biodistribution and pharmacokinetic clearance of the complexes in mice were monitored by using dynamic MRI.
In vivo imaging studies with the Fe(III) complexes were studied on at 4.7 T Bruker preclinical MRI in mice (BABC/cJ, Jackson Laboratory) in accordance with approved Institutional Animal Care and Use Committee (IACUC) protocols. The samples with a concentration of 0.050, 0.100, and 0.200 mmol [Fe]/kg. The Fe(III) complex stock solutions were adjusted to pH 7.2 by addition of meglumine and were injected intravenously via tail vein. MR data were recorded continuously for up to 1 h. Distribution studies and clearance kinetics were studied by using MR data acquired over several time points for up to 1 h, and additionally at 4 h and 24 h. For comparison, The Food and Drug Administration (FDA)-approved MRI contrast agent gadopentetate dimeglumine (Gd(DTPA), Magnevist®) and gadoterate meglumine (Gd(DOTA), Dotarem®) were injected at 50.0 μmol [Gd]/kg into separate group of mice and imaged as above.

Compound	electrode potential (E1/2) vs. Ag/AgCl ([1]; pH 3, aqueous)	electrode potential (E1/2) vs. NHE ([1]; pH 3, converted from Ag/AgCl)	electrode potential (E1/2) vs. Ag/AgCl ([1]; pH 7, aqueous)	electrode potential (E1/2) vs. NHE ([1]; pH 7, converted from Ag/AgCl)	kidney contrast enhancement in T1-weighted images (Balb/c mice; 0.20 mmol/kg, 5 min post-injection)	clearance pathway (Balb/c mice; Balb/c mice, dynamic MRI)	tolerability in mice (Balb/c mice; mouse, in vivo)	T1-weighted contrast enhancement compared with other agents (Balb/c mice; healthy mouse, 0.05 mmol/kg, kidneys/blood, up to 45 min)
C[C@H]([O-])CN1CCN(CCCS(=O)(=O)[O-])CCN(C[C@H](C)O)CC1.O.[Fe+3] [Fe(L1)(OH2)]	227 mV	515 mV	−209 mV	79 mV	Enhancement of kidney contrast was observed	cleared predominately by the renal system	tolerated well	
C[C@H]([O-])CN1CCN(C[C@H](C)O)CCN(C[C@H](C)O)CC1.[Fe+3] [Fe(L2)]	~264 mV	~552 mV	~−618 mV	~−330 mV				slightly more enhanced contrast in kidneys and blood than Fe(L1)(OH2) or the Gd(III) complexes
